Experimental data published in ChEMBL document CHEMBL1201862, “PubChem BioAssay data set” (2004).
The source made the active and inactive calls.

Assays:
[1] = viability of PTEN-deleted HCT116 cells – cell-based, HCT116 PTEN knockout, dose response (AID 1047); type: functional;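 also: HCT116 colon tumor cells with PTEN knocked out; cells exposed to compound for 60 hours before readout; potency for loss of cell viability measured by luminescence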
[2] = viability of HCT116 lacking mutant beta-catenin – cell-based, human colon tumor, dose response (AID 1045); type: functional;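 also: HCT116 colon tumor cells with beta catenin knocked out; cells exposed to compound for 60 hours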
[3] = target: T1, Polyadenylate-binding protein 1 (Homo sapiens, UniProt P11940); assay: MLLE binding blockers, Cy5 peptide tracer – biochemical, fluorescence polarization, Cy5-PAM2 peptide, secondary, miRNA deadenylation inhibitor project, dose response (AID 602260); type: functional; details: read-out: IC50_Mean
[4] = target: T1, Polyadenylate-binding protein 1; assay: MLLE domain peptide-binding blockers, IC50 – biochemical, fluorescence polarization, FITC-PAM2 peptide, dose response (AID 602259); type: functional; details: read-out: IC50_Mean
[5] = target: T2, Leucine aminopeptidase (Plasmodium falciparum 3D7, UniProt Q8IL11); assay: P. falciparum M17LAP inhibitors, primary screen, biochemical, fluorogenic H-Leu-NHMec substrate, 1536-well (AID 1619); type: functional
T2 sequence (Q8IL11 whole entry): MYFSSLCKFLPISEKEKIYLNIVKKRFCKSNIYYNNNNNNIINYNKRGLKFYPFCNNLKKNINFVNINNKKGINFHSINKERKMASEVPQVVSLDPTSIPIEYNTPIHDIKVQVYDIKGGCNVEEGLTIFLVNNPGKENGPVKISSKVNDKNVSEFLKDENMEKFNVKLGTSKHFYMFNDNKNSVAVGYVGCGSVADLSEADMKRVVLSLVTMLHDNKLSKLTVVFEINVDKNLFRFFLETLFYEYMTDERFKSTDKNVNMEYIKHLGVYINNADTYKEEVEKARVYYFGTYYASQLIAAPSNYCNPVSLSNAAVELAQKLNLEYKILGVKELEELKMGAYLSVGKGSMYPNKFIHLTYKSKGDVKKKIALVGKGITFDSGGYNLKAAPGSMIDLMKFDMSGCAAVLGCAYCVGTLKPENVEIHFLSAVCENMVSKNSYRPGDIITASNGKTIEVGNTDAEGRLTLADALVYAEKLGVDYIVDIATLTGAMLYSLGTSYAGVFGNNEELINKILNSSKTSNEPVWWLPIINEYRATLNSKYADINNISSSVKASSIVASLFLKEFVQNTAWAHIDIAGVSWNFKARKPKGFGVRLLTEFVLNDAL

[6] = target: Nonstructural protein 1 (Influenza A virus, UniProt Q194T2); type: functional, Influenza A virus (A/California/07/2009(H1N1))
[7] = target: T3, Rac GTPase-activating protein 1 (Homo sapiens, UniProt Q9H0H5); assay: blockers of MgcRacGAP-driven Rac1 GTP hydrolysis – biochemical, ADP Hunter fluorescence, primary and confirmatory, confirmation (AID 624330); type: functional
T3 sequence (Q9H0H5 whole entry): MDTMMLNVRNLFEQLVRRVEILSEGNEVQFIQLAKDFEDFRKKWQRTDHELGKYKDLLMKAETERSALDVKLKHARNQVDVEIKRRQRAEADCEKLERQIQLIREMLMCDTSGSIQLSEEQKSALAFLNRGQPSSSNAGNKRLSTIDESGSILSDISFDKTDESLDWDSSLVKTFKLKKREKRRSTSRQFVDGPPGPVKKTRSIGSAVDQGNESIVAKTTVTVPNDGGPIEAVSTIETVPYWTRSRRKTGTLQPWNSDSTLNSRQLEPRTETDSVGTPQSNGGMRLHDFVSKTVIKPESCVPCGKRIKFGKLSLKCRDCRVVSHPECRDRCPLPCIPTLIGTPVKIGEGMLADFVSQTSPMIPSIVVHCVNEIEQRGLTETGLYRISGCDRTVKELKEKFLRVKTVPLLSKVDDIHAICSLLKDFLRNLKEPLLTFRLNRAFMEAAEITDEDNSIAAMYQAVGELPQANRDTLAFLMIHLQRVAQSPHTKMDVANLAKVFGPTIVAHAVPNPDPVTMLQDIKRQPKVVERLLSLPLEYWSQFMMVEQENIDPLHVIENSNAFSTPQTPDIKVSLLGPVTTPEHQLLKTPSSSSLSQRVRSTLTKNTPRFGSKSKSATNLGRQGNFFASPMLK

[8] = tested on: P388; assay: cells; type: functional; details: Mus musculus
[9] = tested on: SN12K1; assay: cells; type: functional; details: Homo sapiens
[10] = tested on: P388/ADR; assay: cells; type: functional; details: Mus musculus
[11] = HEK-293T viability loss after treatment – luminescence, T-cell screen hits, cytotoxicity control for TCR NF-kB inhibitor project, dose response (AID 489026); type: functional, cell-based;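 also: cells exposed to compound about 14 hours before the viability readout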
[12] = target: FAD-linked sulfhydryl oxidase ALR (Homo sapiens, UniProt P55789); assay: ALR-catalysed DTT oxidation blockers – biochemical, H2O2 detection, luminescence, cherry-pick, dose response (AID 493248)
[13] = non-specific 3'UTR reporter inhibition in Clone20-Shn3RL – cell-based, Renilla luciferase, cherry-picked, counter-screen for Shn3 inhibitor project, dose response (AID 624133); type: functional
[14] = reduction of Shn3 3'UTR-driven luciferase in osteoblasts – cell-based, Clone20 osteoblasts, firefly luciferase, cherry-picked, dose response (AID 624132); type: functional;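 also: firefly luciferase luminescence from reporter carrying the Shn3 3'UTR in osteoblasts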
[15] = loss of viability in HepG2 cells – cell-based, CellTiter-Glo, cherry-picked, cytotoxicity control for Shn3 inhibitor project, dose response (AID 624134); type: functional
[16] = tested on: INS1; assay: INS-1E survival protection against cytokine death – cell-based, luminescence, retest, dose response (AID 449756); type: functional; details: Rattus norvegicus;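 also: cell death triggered by IL-1 beta plus TNF-alpha plus IFN-gamma mixture; protective hits raise ATP signal compared with cytokine alone wells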
[17] = Luminescence Cell-Based Dose Response HTS to Identify Inhibitors of 5'UTR Stem-Loop Driven Prion Protein mRNA Translation in H4 Neuroglioblastoma Cells. [Related pubchem assays: 1827 (Project Summary), 1813 (Primary HTS)]; type: functional

T1 sequence (P11940 whole entry, the tested form may be a part): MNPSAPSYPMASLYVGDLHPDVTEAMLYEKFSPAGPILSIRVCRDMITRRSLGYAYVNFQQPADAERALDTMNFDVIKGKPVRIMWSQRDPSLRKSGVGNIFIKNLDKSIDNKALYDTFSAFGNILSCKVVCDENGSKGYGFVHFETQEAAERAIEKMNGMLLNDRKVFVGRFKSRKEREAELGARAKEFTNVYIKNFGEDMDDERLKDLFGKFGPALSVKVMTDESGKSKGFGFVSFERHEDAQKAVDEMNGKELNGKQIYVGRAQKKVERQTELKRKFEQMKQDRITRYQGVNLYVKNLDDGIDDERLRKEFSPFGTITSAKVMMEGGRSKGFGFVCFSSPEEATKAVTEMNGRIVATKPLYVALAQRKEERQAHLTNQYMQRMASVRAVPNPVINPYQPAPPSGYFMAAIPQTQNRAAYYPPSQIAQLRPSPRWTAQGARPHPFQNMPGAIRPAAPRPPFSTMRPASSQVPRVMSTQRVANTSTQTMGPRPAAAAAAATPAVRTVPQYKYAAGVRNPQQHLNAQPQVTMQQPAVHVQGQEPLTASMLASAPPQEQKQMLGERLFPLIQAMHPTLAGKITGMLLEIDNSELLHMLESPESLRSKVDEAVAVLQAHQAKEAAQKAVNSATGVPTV
Chain of Nonstructural protein 1 (Q194T2 whole entry): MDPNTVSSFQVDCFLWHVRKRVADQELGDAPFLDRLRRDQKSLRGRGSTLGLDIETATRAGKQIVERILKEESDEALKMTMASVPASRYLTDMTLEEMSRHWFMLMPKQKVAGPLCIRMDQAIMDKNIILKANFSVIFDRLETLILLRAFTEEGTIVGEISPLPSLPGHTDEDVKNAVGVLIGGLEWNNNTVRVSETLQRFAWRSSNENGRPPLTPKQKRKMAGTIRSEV
Chain of FAD-linked sulfhydryl oxidase ALR (P55789 whole entry): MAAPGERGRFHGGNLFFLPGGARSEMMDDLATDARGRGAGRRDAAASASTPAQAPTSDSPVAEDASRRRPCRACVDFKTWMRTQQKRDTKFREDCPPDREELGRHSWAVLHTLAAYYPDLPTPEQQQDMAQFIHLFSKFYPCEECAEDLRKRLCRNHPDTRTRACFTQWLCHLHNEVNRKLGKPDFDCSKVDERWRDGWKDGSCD

SMILES	GI50 [8]	GI50 [9]	GI50 [10]	other results
COc1ccc(NC(=O)NCCCN2CCN(c3cc(C)ccc3C)CC2)cc1	–	–	–	EC50 [1]: 10.2 µM (active); EC50 [2]: 7.42 µM (active)
O=[N+]([O-])c1ccc(S(=O)(=O)Nc2ccc3c(c2)OCCO3)cc1	–	–	–	IC50 [3]: > 66 µM (inactive); IC50 [4]: > 66 µM (inactive)
Cc1cc(C)c(NC(=O)CN2C(=O)NC3(CCCCC3)C2=O)c(C)c1	–	–	–	IC50 [5]: 19.5 µM (active)
COc1ccc(N=Nc2cc(OC)c(N)cc2OC)cc1	–	–	–	IC50 [6]: 35.3 µM (active); IC50 [7]: 35.2 µM (active)
Cc1ccccc1-c1nc(S(=O)(=O)c2ccccc2)c(N2CCCC2)o1	–	–	–	IC50 [3]: > 66 µM (inactive); IC50 [4]: > 66 µM (inactive)
Nc1nc(F)nc2c1ncn2C1OC(COP(=O)(O)O)C(O)C1O (configuration not stated)	3.24 µM (inactive)	18.1 µM (inactive)	4.22 µM (inactive)	–
CC1CC(C)CC(C)C(O)/C(C#N)=C/C=C/CC(C2CCCC2C(=O)O)OC(=O)CC(O)C(C)C1 (configuration not stated)	< 0.01 µM (active)	< 0.0109 µM (active)	< 0.01 µM (active)	–
Cc1cc(C)c(C2=NO[C@@H]3[C@H]2C(=O)C=C2N(Cc4ccccc4)CCO[C@@]23O)c(C)c1	> 100 µM (inactive)	> 100 µM (inactive)	> 100 µM (inactive)	–
CC1CC=CC(O)C1 (configuration not stated)	55 µM (inactive)	> 100 µM (inactive)	> 100 µM (inactive)	–
CCN(CC)CCOC(=O)Cc1cccc2c(=O)cc(-c3ccccc3)oc12	206 µM (inactive)	24.7 µM (inactive)	122 µM (inactive)	–
CN(C)CCNC(=O)c1ccc(Cl)c2ccc(-c3ccccc3)nc12	1.13 µM (inactive)	2.28 µM (inactive)	1.95 µM (inactive)	–
COCC1N=C(c2cc(OC)c(OC)c(OC)c2-c2cc3c(cc2[C@@H](C)O)OCO3)O[C@H]1c1ccccc1 (some centres not stated)	64.3 µM (inactive)	55.5 µM (inactive)	> 100 µM (inactive)	–
COc1cc(C2c3cc4c(cc3[C@@H](Nc3cccc([N+](=O)[O-])c3)C3COC(=O)[C@H]23)OCO4)cc(OC)c1O (some centres not stated)	< 0.0193 µM (active)	0.589 µM (active)	0.783 µM (active)	–
Cc1ccnc2c1ccc1cccnc12	–	–	–	IC50 [11]: > 80 µM (inactive); IC50 [6]: 0.736 µM (active)
Cn1c(=O)c2c(nc(N/N=C/c3ccncc3)n2Cc2ccccc2)n(C)c1=O	–	–	–	AC50 [12]: 0.628 µM (active)
O=C(Cn1cncn1)N/N=C/c1cc([N+](=O)[O-])ccc1O	–	–	–	IC50 [6]: 3.9 µM (active)
N#CC(c1ccc(Cl)cc1)c1ccc2c(C(F)(F)F)cc(C(F)(F)F)nc2n1 (configuration not stated)	–	–	–	AC50 [13]: 1.38 µM (active); AC50 [14]: 0.487 µM (active); AC50 [15]: 2.97 µM (active); EC50 [1]: 0.349 µM (active); AC50 [16]: 0.54 µM (active); EC50 [17]: 8.03 µM (active); EC50 [2]: 0.321 µM (active)
C[C@@H](CN1CC(=O)NC(=O)C1)N1CC(=O)NC(=O)C1 [DEXRAZOXANE]	49.3 µM (inactive)	24.2 µM (inactive)	394 µM (inactive)	–
